Reference: patent US9283243B2, “CD36 inhibition to control obesity and insulin sensitivity” (CORNELL UNIVERSITY CORNELL CENTER FOR TECHNOLOGY, …, priority 2010, dated 2016)
“Also recorded” adds a separate entry of the source. Square brackets hold non-standard residues; d marks the D form. Peptide text beside a SMILES is read from it. dTrp(2-Me) = Cc1[nH]c2ccccc2c1C[C@@H](N)C(=O)O

Tests used:
CD36 [1] = target: T1, CD36 (Homo sapiens, UniProt P16671); assay: High throughput screen for CD36 antagonists
T1 sequence (P16671 whole entry): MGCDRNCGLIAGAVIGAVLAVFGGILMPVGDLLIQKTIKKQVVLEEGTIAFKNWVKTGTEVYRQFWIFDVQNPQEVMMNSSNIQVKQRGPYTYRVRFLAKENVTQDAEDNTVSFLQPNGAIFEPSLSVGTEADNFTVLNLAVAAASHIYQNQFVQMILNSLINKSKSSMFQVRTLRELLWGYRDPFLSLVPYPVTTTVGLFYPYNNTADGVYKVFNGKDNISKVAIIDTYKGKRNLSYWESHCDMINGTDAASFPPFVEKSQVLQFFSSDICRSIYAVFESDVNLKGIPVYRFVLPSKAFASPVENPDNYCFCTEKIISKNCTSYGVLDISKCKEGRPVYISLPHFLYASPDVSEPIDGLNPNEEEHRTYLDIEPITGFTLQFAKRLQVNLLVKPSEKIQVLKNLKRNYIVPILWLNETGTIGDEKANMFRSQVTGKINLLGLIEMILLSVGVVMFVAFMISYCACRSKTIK
Excerpt: Candidate modulator compounds from libraries of synthetic or natural compounds can be screened by methods known in the art (see Chinese patent number ZL200510072269.1, Publication No: CN1868546, and Chinese patent application number 200910147634.9, each hereby incorporated in its entirety by reference). Synthetic compound libraries are commercially available from a number of companies including Maybridge Chemical Co. (Trevillet, Cornwall, UK), Comgenex (Princeton, N.J.), Brandon Associates (Merrimack, N.H.), and Microsource (New Milford, Conn.). Combinatorial libraries are available or can be prepared according to known synthetic techniques. Alternatively, libraries of natural compounds in the form of bacterial, fungal, plant and animal extracts are available from e.g., Pan Laboratories (Bothell, Wash.) or MycoSearch (NC), or are readily producible by methods well known in the art. Additionally, natural and synthetically produced libraries and compounds can be further modified through conventional chemical and biochemical techniques.
The use of high throughput screening has allowed the identification of compounds that potently antagonize CD36 in vitro. Following isolation of CD36 antagonists by in vitro testing, experiments can be conducted to test the efficacy in vivo. […]

CD36 mRNA [2] = assay: CD36 gene expression in peritoneal macrophages and spleen from vehicle and SAB-treated mice; format: in vivo, mouse; details: SAB-treated vs vehicle mice
Excerpt: (§1) FIG. 1A-1I. In vivo effect of chronic SAB treatment on physiological responses. (A), Body weight changes in ApoE KO mice fed a high fat diet for 8 weeks in vehicle (Veh)- and salvianolic acid (SAB)-treated mice. (B), Pictures were taken at the end of 8 weeks of high fat diet. […] (C), Fasting blood glucose levels. (D), Glucose tolerance test. (E), Area under curve (AUC). (F), CD36 mRNA levels in peritoneal macrophages and spleen from vehicle and SAB treated mice. (G), Measurement of lipid content from blood vessels. Lipid extraction and determination was performed using published methods (Kim et al., 2008). (H), Fold increases of plasma cholesterol levels 4 and 8 weeks after high fat diet. (I), Oil red O staining in the liver of vehicle and SAB treated mice. […] Number in parentheses indicates number of animals for the measurements.
SAB treatment reduces CD36 expression in peritoneal macrophages. Since CD36 is expressed in monocytes and macrophages, CD36 gene expression was compared in peritoneal macrophages and the spleen, a peripheral organ that serves as a reservoir of monocytes, from vehicle and SAB-treated mice. CD36 mRNA levels were reduced in both peritoneal and spleen macrophages of SAB-treated mice (FIG. 1F). […]

[3] = test system: ApoE KO mouse macrophages; assay: Foam cell assay / lipid accumulation in primary macrophages incubated with oxLDL; format: cell-based; details: 48 h, vs oxLDL alone
Procedure: FIG. 5. Effects of SAB on lipid accumulation in ApoE KO mouse macrophages. Primary macrophages were seeded in 4 chamber slides and then incubated with 20 μg/ml oxLDL and/or different concentrations of SAB for 48 h. (A-D) Lipids were stained with oil red O and examined by microscopy; representative images are shown. (A), vehicle only; (B), 25 μM SAB treatment; (C), 20 μg/ml oxLDL; (D), 20 μg/ml oxLDL+25 μM SAB. Scale bar, 50 μm; higher magnification micrographs of oil red O stains were shown in upper-right of each picture. (E-F), Quantification for foam cell assay in primary macrophage. White bar, macrophages incubated with vehicle only (no oxLDL or SAB); black bar, incubated with 20 μg/ml oxLDL; grey bars, incubated with 20 μg/ml oxLDL plus 10, 25 or 100 μM SAB (SAB concentration listed below each bar); (E), Degree of lipid accumulation measured as intensity of integrated optical density; (F), Foam cell average area compared to average area of control macrophages incubated with vehicle. Control (vehicle-treated) average individual macrophage cell size/ area was normalized as 1; macrophages treated with oxLDL show increased individual relative cell area resulting from lipid internalization (black bar); SAB treatment (grey bars) reduced lipid internalization and relative cell size/area. n=3-6 cells/group. **,***p<0.01, 0.001 compared with no oxLDL(0).
SAB reduces lipid accumulation in ApoE KO mouse macrophages. Primary macrophages were isolated from ApoE KO mice and incubated with oxidized low density lipoproteins (oxLDL) and/or different concentrations of SAB for 48 h, then stained for lipid accumulation. […] Thus, CD36 antagonists can prevent accumulation of fat and lipids in cells subject to lipid-rich environments.
SAB reduces lipid accumulation and foam cell formation. Primary macrophages cultured from ApoE KO mice show a low intensity of optical density (IOD) commensurate with small cellular area (FIGS. 5E and 5F, white bar). […]

[4] = test system: hyperlipidemic ApoE KO (AKO) mice; assay: Fasting blood glucose and glucose tolerance test in SAB-treated high fat fed ApoE KO mice; format: in vivo, mouse
Excerpt: as §1
SAB treatment improves insulin sensitivity. Fasting blood glucose levels were similar in SAB-treated and control mice at zero, four, and eight weeks of treatment (FIG. 1C). However, when mice were challenged with glucose tolerance test (an intraperitoneal injection of […]), blood glucose was cleared much faster in SAB-treated mice (45 minutes after challenge, initial blood glucose spike reduced by 75%) relative to vehicle-treated mice (45 minutes after challenge, initial spike in blood glucose reduced by less than 10%; FIG. 1D).

[5] = test system: hyperlipidemic ApoE KO (AKO) mice; assay: Chronic SAB treatment of ApoE KO mice fed a high fat diet for 8 weeks: body weight, fat, cholesterol, liver and vessel lipid; format: in vivo, mouse; details: for average visceral fat weight: p<0.001
Excerpt: as §1
FIG. 2A-2B. Visceral fat weight in high fat fed ApoE KO mice treated with SAB (100 mg/kg) for 8 weeks. 100 mg/kg SAB or vehicle (veh) was injected every other day by subcutaneous injection. n=8-10/group. […] (B), SAB reduced visceral fat weight from average=81 mg/animal to average=32 mg/animal. ***, p<0.001.
Chronic SAB treatment in hyperlipidemic ApoE KO (AKO) mice reduces weight gain and visceral fat accumulation. […] Feeding a high fat diet to the ApoE KO mice for 8 weeks increases plasma cholesterol levels approximately 5 fold (Kim et al., 2008). Six week old male ApoE KO (HL AKO) mice were fed a high fat diet for 8 weeks with or without SAB (100 mg/kg, subcutaneously every other day). […] The difference in weight between the groups was apparent by the 3rd week of treatment (FIG. 1A). […] Thus, SAB reduces body weight and fat accumulation, particularly visceral/abdominal fat accumulation and liver fat deposits, and also lowers plasma cholesterol.
Visceral fat weight in high fat fed ApoE KO mice treated with either vehicle or SAB (100 mg/kg) for 8 weeks. 100 mg/kg SAB or vehicle (veh) was injected every other day by subcutaneous injection. n=8-10 mice/group, ***, p<0.001. […] SAB reduced visceral fat weight by 60% (32 mg average visceral fat weight in SAB treated mice versus 81 mg average visceral fat weight in controls; FIG. 2B). This provides further evidence that CD36 antagonists can reduce fat accumulation, particularly visceral fat accumulation.

CD36 [6] = target: T1, CD36; details: Xu, Y et al., Anal Biochem 2010; cited from earlier work
CD36 [7] = target: T1, CD36; details: Demers et al. 2004, cited from earlier work
CD36 [8] = details: literature, cited from earlier work
CD36 mRNA [9] = assay: CD36 siRNA transfection in C8-D1A cells, CD36 mRNA levels; format: cell-based; details: 20 nM siRNA, 24h after transfection, N=4, vs negative control
Procedure: FIG. 4. Efficacy of CD36 siRNA. 20 nM siRNA either singly or in combination were transfected in C8-D1A cells. CD36 mRNA levels were measured 24h later. N=4. Negative controls were adjusted to the amount of siRNA. **p<0.01, ***p<0.001 vs correponding control.
CD36 was inhibited using an RNAi technique. 20 nM siRNA either singly or in combination were transfected in C8-D1A cells. CD36 mRNA levels were measured 24h later. N=4. Negative controls were adjusted to the amount of siRNA. **p<0.01, ***p<0.001 vs correponding control.

[10] = 20 μg/ml oxLDL plus 10, 25 or 100 μM SAB
[11] = SAB 100 mg/kg s.c. every other day, high fat diet 8 weeks

With O=C(/C=C/c1ccc(O)c2c1[C@H](C(=O)O[C@H](Cc1ccc(O)c(O)c1)C(=O)O)C(c1ccc(O)c(O)c1)O2)O[C@@H](Cc1ccc(O)c(O)c1)C(=O)O (stereo in doubt) [SAB, salvianolic acid B] the “CD36 antagonist identification in high throughput screen” value (CD36 [1]) was “identified as a CD36 antagonist”, the “CD36 mRNA levels in peritoneal macrophages” value (CD36 mRNA [2]) was “reduced” and the “CD36 mRNA levels in spleen macrophages” value (CD36 mRNA [2]) was “reduced”. For the same compound, the “lipid accumulation (oil red O staining)” value ([3]; 20 μg/ml oxLDL + 25 μM SAB) was “significantly reduced lipid accumulation”, the “lipid accumulation as intensity of optical density (IOD)” value [3, 10] was “significantly reduced” and the “relative cell area (foam cell average area)” value [3, 10] was “significantly reduced”. The “reduction of initial blood glucose spike in glucose tolerance test” value ([4]; 45 minutes after challenge, intraperitoneal injection of 1.5 mg glucose/kg, vehicle less than 10%) was 75%, the “AUCglucose (glucose area under the curve) in glucose tolerance test” value ([4]; SAB-treated vs vehicle-treated mice) was “significant reduction” and the “fasting blood glucose levels vs control mice” value ([4]; zero, four, and eight weeks of treatment) was “similar”. For the same compound, the “reduction of visceral fat weight” value ([5]; SAB 100 mg/kg s.c. every other day, 8 weeks, vs controls) was 60%, the “average visceral fat weight” value ([5]; SAB 100 mg/kg s.c. every other day, 8 weeks, controls 81 mg) was 32 mg and the “average visceral fat weight” value ([5]; SAB 100 mg/kg s.c. every other day, 8 weeks, vehicle 81 mg/animal) was 32 mg/animal. The “fat deposition in the liver (Oil red O staining)” value [5, 11] was “profoundly reduced; also recorded: significantly reduced”, the “leaner compared to vehicle treated ApoE KO mice” value [5, 11] was 17% and the abdominal fat accumulation ([5]; SAB 100 mg/kg s.c. every other day, high fat diet 8 weeks, physical inspection) was “Reduction in abdominal fat was evident; also recorded: substantially reduced; also recorded: either minimal or absent”. For the same compound, the plasma cholesterol levels ([5]; SAB 100 mg/kg s.c. every other day, high fat diet, 4 and 8 weeks) was “significantly reduced”, the “rate of weight gain (weekly body weight)” value ([5]; SAB 100 mg/kg subcutaneously every other day, high fat diet 8 weeks, vs vehicle) was “significantly reduced” and the “lipid content in the aorta and extended vessels” value ([5]; preliminary analysis, SAB-treated vs vehicle mice) was “trend toward lipid content reduction”.

In the case of O=C(/C=C/c1ccccc1)c1c[nH]c2ccccc12 [3-cinnamoyl indole], the “CD36 antagonist identification through high-throughput screening” value (CD36 [6]) is given as “identified”.

In the case of CCCCCc1c2[n+](cc3c(OC)c(OC)ccc13)CCc1cc3c(cc1-2)OCO3 [13 pentyl berberine], the “CD36 antagonist identification through high-throughput screening” value (CD36 [6]) is listed as “identified”.

For Cc1[nH]c2ccccc2c1C[C@@H](NC(=O)[C@@H](N)Cc1cnc[nH]1)C(=O)N[C@@H](C)C(=O)N[C@@H](Cc1c[nH]c2ccccc12)C(=O)N[C@H](Cc1ccccc1)C(=O)N[C@@H](CCCCN)C(N)=O [hexarelin] (H-H[dTrp(2-Me)]AW[dF]K-NH2), the “binding to CD36 receptors” value (CD36 [7]) is given as “binds” and the “CD36-mediated uptake of oxLDLs” value (CD36 [7]; binding site competition) is given as “blocks”.

In the case of Cc1c(C)c2c(c(C)c1O)CC[C@@](C)(CCC[C@H](C)CCC[C@H](C)CCCC(C)C)O2 [α-tocopherol], the “uptake of oxLDLs into macrophages” value (CD36 [8]) is listed as “can reduce” and the “expression of CD36” value (CD36 [8]; macrophages) is listed as “can reduce”.

In the case of “MSS202775: CD36 siRNA from exon9, SEQ ID NO: 1 and 2 (chain 1 UAGCUUGGCCAAUAGGACAAAUUCC; chain 2 GGAAUUUGUCCUAUUGGCCAAGCUA; chemistry not given here)”, the “CD36 gene expression (CD36 mRNA levels)” value (CD36 mRNA [9]) is reported as “reduced CD36 gene expression significantly” and the “CD36 gene expression (CD36 mRNA levels)” value (CD36 mRNA [9]; listed as siRNA 75) is reported as “most effective”.

In the case of “MSS202776: CD36 siRNA, exon7, SEQ ID NO: 3 and 4 (chain 1 CUUGUUUGGAACACAGAAGACUUGG; chain 2 CCAAGUCUUCUAUGUUCCAAACAAG; chemistry not given here)”, the “CD36 gene expression (CD36 mRNA levels)” value (CD36 mRNA [9]) is reported as “reduced CD36 gene expression significantly”.

With “MSS202777: CD36 siRNA, exon11, SEQ ID NO: 5 and 6 (chain 1 ACACCAUAAGAUGUACAGUUAUUGG; chain 2 CCAAUAACUGUACAUCUUAUGGUGU; chemistry not given here)” the “CD36 gene expression (CD36 mRNA levels)” value (CD36 mRNA [9]) was “reduced CD36 gene expression significantly”.
